What is called IC50 is the concentration that inhibits the measured activity by half.

For one experiment, the target named is T1, Human M4 (Homo sapiens, UniProt P08173).
T1 construct: expressed in transfected cells; host or cells: CHO-K1 (ATCC), stably expressing M4 and Gqi5
T1 sequence (P08173 1-479): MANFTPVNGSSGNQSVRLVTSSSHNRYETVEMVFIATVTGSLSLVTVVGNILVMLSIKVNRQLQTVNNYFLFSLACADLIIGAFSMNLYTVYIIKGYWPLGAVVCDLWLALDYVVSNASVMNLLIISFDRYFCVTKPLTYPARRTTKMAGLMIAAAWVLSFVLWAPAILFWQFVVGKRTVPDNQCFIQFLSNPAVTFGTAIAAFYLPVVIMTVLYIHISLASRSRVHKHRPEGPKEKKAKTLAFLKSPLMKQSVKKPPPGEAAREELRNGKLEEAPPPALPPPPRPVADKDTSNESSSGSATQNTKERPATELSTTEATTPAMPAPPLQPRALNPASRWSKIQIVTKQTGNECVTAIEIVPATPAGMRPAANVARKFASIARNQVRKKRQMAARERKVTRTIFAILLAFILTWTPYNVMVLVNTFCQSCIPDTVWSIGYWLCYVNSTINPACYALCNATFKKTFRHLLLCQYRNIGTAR
The experiment can be described thus: mAChR M4 cell-based functional calcium flux assay (human M4/Gqi5/CHO cells). The note with it: for Emin (human M4): % ACh maximum at 30 μM; for IC50: decrease of the response to an EC80 concentration of acetylcholine. A digest of the protocol: (§1)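 CHO-K1 cells stably co-expressing M4 of the given species with chimeric Gqi5 were loaded with Fluo-4 AM and read for calcium flux. Compounds (10-point, 1:3 dilutions) were added first, followed by an acetylcholine EC20 at 143 s and an EC80 at 268 s. IC50 reflects the concentration-dependent fall in the EC80 response, fitted with a four-parameter logistic.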
In general terms: Calcium assays in cells follow changes in intracellular calcium, usually with a dye or a luminescent sensor.

The target in a further experiment is T2, Rat M4 (Rattus norvegicus, UniProt P08485).
T2 construct: expressed in transfected cells; host or cells: CHO-K1 (ATCC), stably expressing M4 and Gqi5
T2 sequence (P08485 1-478): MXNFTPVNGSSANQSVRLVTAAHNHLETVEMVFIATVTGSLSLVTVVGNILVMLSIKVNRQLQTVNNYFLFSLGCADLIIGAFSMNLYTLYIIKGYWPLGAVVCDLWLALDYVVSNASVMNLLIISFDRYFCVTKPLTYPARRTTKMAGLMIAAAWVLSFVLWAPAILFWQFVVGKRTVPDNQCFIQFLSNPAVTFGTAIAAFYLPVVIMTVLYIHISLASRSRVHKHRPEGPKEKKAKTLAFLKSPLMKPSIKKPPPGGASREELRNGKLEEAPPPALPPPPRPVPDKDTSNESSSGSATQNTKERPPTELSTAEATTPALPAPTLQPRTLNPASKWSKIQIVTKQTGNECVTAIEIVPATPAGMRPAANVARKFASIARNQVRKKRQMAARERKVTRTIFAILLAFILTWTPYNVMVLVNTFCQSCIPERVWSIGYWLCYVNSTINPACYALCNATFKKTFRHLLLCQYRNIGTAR
In words: mAChR M4 cell-based functional calcium flux assay (rat M4/Gqi5/CHO cells). As to conditions: for Emin (rat M4): % ACh maximum at 30 μM. In a few lines:
as §1

Setting [1] is: cells printed in μM, decrease of the EC80 acetylcholine response.
The mark [2] stands for this setting: decrease of the response to an EC80 concentration of acetylcholine.

As for `Cc1nn(C)cc1-c1ccc(NCC2CC23CCN(CC2CC2)CC3)nn1` (stereo not shown) [Compound 55, N-[[6-(cyclopropylmethyl)-6-azaspiro[2.5]octan-2-yl]methyl]-6-(1,3-dimethylpyrazol-4-yl)pyridazin-3-amine], at Human M4, the “Emin (human M4)” value came to 16.7% and the IC50 stood at 2890 nM. The “Emin (rat M4)” value at Rat M4 is reported as 45.7%. Further, on Rat M4 (setting [1]), the IC50 is greater than 10 µM.

Take `Cc1nn(C)cc1-c1ccc(NCC2CC23CCN(CC2CCCCC2)CC3)nn1` (stereo not shown) [Compound 56, N-[[6-(cyclohexylmethyl)-6-azaspiro[2.5]octan-2-yl]methyl]-6-(1,3-dimethylpyrazol-4-yl)pyridazin-3-amine]: on Human M4, the “Emin (human M4)” value is listed as 3.42% and the IC50 amounted to 5.06 nM. Further, the “Emin (rat M4)” value at Rat M4 is given as 4.14%. On Rat M4 (setting [2]), the IC50 amounted to 0.0638 µM.

Take `Cc1nn(C)cc1-c1ccc(NCC2CC23CCN(CC24CC5CC(CC(C5)C2)C4)CC3)nn1` (stereo not shown) [Compound 57, N-[[6-(1-adamantylmethyl)-6-azaspiro[2.5]octan-2-yl]methyl]-6-(1,3-dimethylpyrazol-4-yl)pyridazin-3-amine]: at Human M4, the “Emin (human M4)” value worked out at 3.30%. Further, the IC50 at Human M4 amounted to 69.1 nM; on Rat M4 (setting [2]), 0.534 µM. Also, the “Emin (rat M4)” value on Rat M4 is recorded as 3.84%.

Consider `Cc1nn(C)cc1-c1ccc(NCC2CC23CCN(Cc2ccccc2)CC3)nn1` (stereo not shown) [Compound 58, N-[(6-benzyl-6-azaspiro[2.5]octan-2-yl)methyl]-6-(1,3-dimethylpyrazol-4-yl)pyridazin-3-amine], for which the “Emin (human M4)” value at Human M4 turned out to be 4.18%. Besides, the IC50 at Human M4 stood at 384 nM; at Rat M4 (setting [2]) it was 3.6 µM. In addition, the “Emin (rat M4)” value at Rat M4 came out at 11.8%.

`Cc1nn(C)cc1-c1ccc(NCC2CC23CCN(CC(c2ccccc2)c2ccccc2)CC3)nn1` (stereo not shown) [Compound 59, 6-(1,3-dimethylpyrazol-4-yl)-N-[[6-(2,2-diphenylethyl)-6-azaspiro[2.5]octan-2-yl]methyl]pyridazin-3-amine]: on Human M4, the “Emin (human M4)” value came out at 3.31% and the IC50 was 543 nM. Besides, the “Emin (rat M4)” value on Rat M4 was 4.58%. Moreover, the IC50 at Rat M4 (setting [2]) was found to be 1.88 µM.

As to `Cc1nn(C)cc1-c1ccc(NCC2CC23CCN(CC2CCCOC2)CC3)nn1` (stereo not shown) [Compound 60, 6-(1,3-dimethylpyrazol-4-yl)-N-[[6-(tetrahydropyran-3-ylmethyl)-6-azaspiro[2.5]octan-2-yl]methyl]pyridazin-3-amine], on Human M4, the “Emin (human M4)” value came out at 3.93% and the IC50 stood at 114 nM. For the same compound, the “Emin (rat M4)” value at Rat M4 is 12.3%. Moreover, the IC50 on Rat M4 (setting [2]) worked out at 1.89 µM.

Consider `Cc1nn(C)cc1-c1ccc(NCC2CC23CCN(CC2CCOCC2)CC3)nn1` (stereo not shown) [Compound 61, 6-(1,3-dimethylpyrazol-4-yl)-N-[[6-(tetrahydropyran-4-ylmethyl)-6-azaspiro[2.5]octan-2-yl]methyl]pyridazin-3-amine], for which, on Human M4, the “Emin (human M4)” value is given as 3.54% and the IC50 is 11.5 nM. For the same compound, at Rat M4, the “Emin (rat M4)” value came to 5.67%. Moreover, the half-inhibitory concentration (IC50) at Rat M4 (setting [2]) was 0.199 µM.

With `Cc1cccnc1CN1CCC2(CC1)CC2CNc1ccc(-c2cn(C)nc2C)nn1` (stereo not shown) [Compound 62, 6-(1,3-dimethylpyrazol-4-yl)-N-[[6-[(3-methyl-2-pyridyl)methyl]-6-azaspiro[2.5]octan-2-yl]methyl]pyridazin-3-amine], on Human M4, the “Emin (human M4)” value was 4.23% and the IC50 worked out at 271 nM. In addition, the “Emin (rat M4)” value on Rat M4 is 19.9%. The IC50 at Rat M4 (setting [2]) came to 4.46 µM.

On to `Cc1nn(C)cc1-c1ccc(NCC2CC23CCN(Cc2ncccc2C(F)(F)F)CC3)nn1` (stereo not shown) [Compound 63, 6-(1,3-dimethylpyrazol-4-yl)-N-[[6-[[3-(trifluoromethyl)-2-pyridyl]methyl]-6-azaspiro[2.5]octan-2-yl]methyl]pyridazin-3-amine], for which, on Human M4, the “Emin (human M4)” value was determined as 4.53% and the IC50 was determined as 537 nM. For the same compound, the “Emin (rat M4)” value on Rat M4 is given as 19.9%. Moreover, the IC50 on Rat M4 (setting [1]) is greater than 10 µM.

Take `CC(C)(C)CCN1CCC2(CC1)C[C@H]2CNc1ccc(-c2cc(F)ccc2Cl)nn1` [Compound 64, (R)-6-(2-chloro-5-fluoro-phenyl)-N-[[6-(3,3-dimethylbutyl)-6-azaspiro[2.5]octan-2-yl]methyl]pyridazin-3-amine]: at Human M4, the “Emin (human M4)” value was determined as 2.90% and the IC50 came out at 11 nM. The “Emin (rat M4)” value on Rat M4 stood at 3.68%. Besides, the IC50 at Rat M4 (setting [2]) is 0.0332 µM.

Turning to `Fc1ccc(Cl)c(-c2ccc(NC[C@@H]3CC34CCN(CC3CCCCC3)CC4)nn2)c1` [Compound 65, (R)-6-(2-chloro-5-fluoro-phenyl)-N-[[6-(cyclohexylmethyl)-6-azaspiro[2.5]octan-2-yl]methyl]pyridazin-3-amine], on Human M4, the “Emin (human M4)” value turned out to be 2.62% and the IC50 worked out at 12.7 nM. Moreover, the “Emin (rat M4)” value at Rat M4 was found to be 4.33%. In addition, the IC50 on Rat M4 (setting [2]) stood at 0.0809 µM.

As to `CC(C)(C)CCN1CCC2(CC1)C[C@@H]2CNc1ccc(-c2cc(F)ccc2Cl)nn1` [Compound 66, (S)-6-(2-chloro-5-fluoro-phenyl)-N-[[6-(3,3-dimethylbutyl)-6-azaspiro[2.5]octan-2-yl]methyl]pyridazin-3-amine], the “Emin (human M4)” value at Human M4 was 3.50%. In addition, the figures for the half-inhibitory concentration (IC50) at Human M4 and on Rat M4 (setting [2]) were 9.91 nM and 0.151 µM, respectively. Moreover, the “Emin (rat M4)” value at Rat M4 came to 3.95%.

Consider `Fc1ccc(Cl)c(-c2ccc(NC[C@H]3CC34CCN(CC3CCCCC3)CC4)nn2)c1` [Compound 67, (S)-6-(2-chloro-5-fluoro-phenyl)-N-[[6-(cyclohexylmethyl)-6-azaspiro[2.5]octan-2-yl]methyl]pyridazin-3-amine], for which, on Human M4, the “Emin (human M4)” value amounted to 3.66% and the IC50 amounted to 27.8 nM. Also, on Rat M4, the “Emin (rat M4)” value was determined as 4.36%. The IC50 at Rat M4 (setting [2]) is 0.527 µM.

With `Fc1ccc(Cl)c(-c2ccc(NCC3CC34CCN(CC3CC5C=CC3C5)CC4)nc2)c1` (stereo not shown) [Compound 68, N-[[6-(5-bicyclo[2.2.1]hept-2-enylmethyl)-6-azaspiro[2.5]octan-2-yl]methyl]-5-(2-chloro-5-fluoro-phenyl)pyridin-2-amine], at Human M4, the “Emin (human M4)” value amounted to 4.04% and the IC50 is 495 nM. Also, at Rat M4, the “Emin (rat M4)” value was found to be 4.48%. In addition, the IC50 at Rat M4 (setting [2]) was 1.5 µM.

For the compound `CC(C)(C)CCN1CCC2(CC1)CC2CNc1ccc(-c2cc(F)ccc2Cl)cn1` (stereo not shown) [Compound 69, 5-(2-chloro-5-fluoro-phenyl)-N-[[6-(3,3-dimethylbutyl)-6-azaspiro[2.5]octan-2-yl]methyl]pyridin-2-amine], on Human M4, the “Emin (human M4)” value is 4.09% and the IC50 came to 749 nM. The “Emin (rat M4)” value at Rat M4 was found to be 4.18%. Further, the IC50 on Rat M4 (setting [2]) came out at 1.8 µM.

For `Cc1nn(C)cc1-c1ccc(NCC2CC23CCN(CC2CC4C=CC2C4)CC3)nc1` (stereo not shown) [Compound 70, N-[[6-(5-bicyclo[2.2.1]hept-2-enylmethyl)-6-azaspiro[2.5]octan-2-yl]methyl]-5-(1,3-dimethylpyrazol-4-yl)pyridin-2-amine], the “Emin (human M4)” value on Human M4 was 3.29%. Moreover, the IC50 at Human M4 was 45.2 nM; at Rat M4 (setting [2]), 0.17 µM. The “Emin (rat M4)” value at Rat M4 is given as 3.96%.

As for `C1=CC2CC1CC2CN1CCC2(CC1)CC2CNc1ncc(-c2ccccc2)s1` (stereo not shown) [Compound 71, N-[[6-(5-bicyclo[2.2.1]hept-2-enylmethyl)-6-azaspiro[2.5]octan-2-yl]methyl]-5-phenyl-thiazol-2-amine], at Human M4, the “Emin (human M4)” value stood at 4.74% and the IC50 turned out to be 1270 nM. For the same compound, the “Emin (rat M4)” value at Rat M4 worked out at 4.72%. The IC50 at Rat M4 (setting [2]) was determined as 0.833 µM.

In the case of `CC(C)(C)CCN1CCC2(CC1)CC2CNc1ncc(-c2ccccc2)s1` (stereo not shown) [Compound 72, N-[[6-(3,3-dimethylbutyl)-6-azaspiro[2.5]octan-2-yl]methyl]-5-phenyl-thiazol-2-amine], on Human M4, the “Emin (human M4)” value is recorded as 4.42% and the IC50 is 1260 nM. Moreover, at Rat M4, the “Emin (rat M4)” value is 4.86%. Further, on Rat M4 (setting [2]), the IC50 came to 0.779 µM.

`c1ccc(-c2cnc(NCC3CC34CCN(CC3CCOCC3)CC4)s2)cc1` (stereo not shown) [Compound 73, 5-phenyl-N-[[6-(tetrahydropyran-4-ylmethyl)-6-azaspiro[2.5]octan-2-yl]methyl]thiazol-2-amine]: at Human M4, the “Emin (human M4)” value amounted to 8.96% and the IC50 was found to be 6550 nM. Moreover, the “Emin (rat M4)” value at Rat M4 amounted to 9.84%. The IC50 at Rat M4 (setting [2]) turned out to be 3.09 µM.

These data come from patent US12600726B2, “Antagonists of the muscarinic acetylcholine receptor M4” (Vanderbilt University, priority 2017, dated 2026).
